Measured values published in patent US9096615B2, “Bridged bicyclic amino thiazine dioxide compounds as inhibitors of beta-secretase and methods of use thereof” (AMGEN INC., priority 2013, dated 2015).

What was measured:
[1] = test system: Aβ40 in conditioned medium of cells stably expressing Amyloid Precursor Protein (APP); assay: In vitro BACE cell-based assay (HEK cell assay, Aβ40 sandwich ELISA); details: Homo sapiens, HEK293; average IC50; read-out: BACE1 cell assay IC50
How it was run: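 APP-stable cells were cultured 24 h at 37 °C, then given compound as 10-point dose-response (top 100 μM or 10 μM; 0.1% DMSO final) for 24 h. Aβ40 in conditioned medium was measured by sandwich ELISA (pAb40 capture, biotinylated 6E10 detection, Eu time-resolved fluorescence). IC50 from percent inhibition versus concentration.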

BACE1 = BACE1 (Homo sapiens, UniProt P56817); assay: In vitro enzymatic BACE FRET assay; assay type: biochemical; details: average IC50; read-out: BACE1 Enzyme assay IC50
Sequence of BACE1 (P56817 46-501, species assumed): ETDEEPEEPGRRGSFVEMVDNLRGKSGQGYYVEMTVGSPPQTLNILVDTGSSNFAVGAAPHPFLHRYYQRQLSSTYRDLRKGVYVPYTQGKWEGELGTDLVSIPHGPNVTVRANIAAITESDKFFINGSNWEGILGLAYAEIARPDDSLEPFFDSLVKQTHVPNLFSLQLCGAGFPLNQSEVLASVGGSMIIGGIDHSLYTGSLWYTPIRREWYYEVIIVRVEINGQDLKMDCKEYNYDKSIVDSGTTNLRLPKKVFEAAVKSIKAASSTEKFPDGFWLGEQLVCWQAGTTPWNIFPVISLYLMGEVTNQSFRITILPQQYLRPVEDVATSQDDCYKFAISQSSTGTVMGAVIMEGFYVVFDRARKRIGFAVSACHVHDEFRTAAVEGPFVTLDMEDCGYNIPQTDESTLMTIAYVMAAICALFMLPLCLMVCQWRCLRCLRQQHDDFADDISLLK
How it was run: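 BACE (0.2 nM) pre-incubated 1 h with serially diluted inhibitor in 0.05 M acetate pH 4.2, 10% DMSO, 100 uM genapol; 50 nM FRET peptide substrate added, 1 h incubation. Stopped with Tris to neutral pH; fluorescence read (ex 488, […]).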

Cathepsin D (Cat D) = target: T1, Cathepsin D (Cat D) (Homo sapiens, UniProt P07339); assay: In vitro enzymatic Cathepsin D (Cat D) FRET assay; assay type: biochemical; details: average IC50; first procedure; read-out: CatD IC50
T1 construct: made in house; host or cells: CHO cells
T1 sequence (P07339 65-412, species assumed): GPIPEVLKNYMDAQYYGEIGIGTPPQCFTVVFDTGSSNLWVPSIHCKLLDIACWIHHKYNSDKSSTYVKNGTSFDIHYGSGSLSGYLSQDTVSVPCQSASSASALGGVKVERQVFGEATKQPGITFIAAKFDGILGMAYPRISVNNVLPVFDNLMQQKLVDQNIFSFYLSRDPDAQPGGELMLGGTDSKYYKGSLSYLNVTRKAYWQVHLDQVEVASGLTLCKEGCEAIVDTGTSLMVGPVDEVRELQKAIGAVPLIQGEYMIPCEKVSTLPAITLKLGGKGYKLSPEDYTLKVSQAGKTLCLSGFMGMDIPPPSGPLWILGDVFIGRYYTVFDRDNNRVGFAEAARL
How it was run: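 Recombinant human Cat D expressed in CHO cells, 9 nM, pre-incubated 1 h with inhibitor in 0.05 M citrate pH 3.5, 10% DMSO, 5 mM CHAPS. Reaction started with 20 nM FRET peptide substrate, run 1 h, stopped with Tris to neutral pH; fluorescence read at ex 500/em 580 nm.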

human Bace2 protein = target: T2, human Bace2 protein (Homo sapiens, UniProt Q9Y5Z0); assay: In vitro enzymatic BACE2 FRET assay; assay type: biochemical; details: average IC50; read-out: BACE2 Enzyme assay IC50
T2 construct: V5 (C); 6-His (C)
T2 sequence (Q9Y5Z0 63-518): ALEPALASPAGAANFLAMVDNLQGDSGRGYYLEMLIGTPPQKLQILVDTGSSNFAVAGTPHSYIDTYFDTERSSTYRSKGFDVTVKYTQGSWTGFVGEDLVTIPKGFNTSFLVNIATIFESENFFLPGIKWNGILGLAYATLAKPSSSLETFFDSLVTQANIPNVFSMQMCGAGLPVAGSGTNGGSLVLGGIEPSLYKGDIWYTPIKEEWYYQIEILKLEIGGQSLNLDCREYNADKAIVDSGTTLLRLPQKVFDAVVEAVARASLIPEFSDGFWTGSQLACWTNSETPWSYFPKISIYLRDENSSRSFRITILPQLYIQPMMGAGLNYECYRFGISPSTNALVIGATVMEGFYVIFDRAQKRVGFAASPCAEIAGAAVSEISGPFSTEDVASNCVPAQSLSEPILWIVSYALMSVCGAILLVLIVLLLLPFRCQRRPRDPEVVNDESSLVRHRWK
Procedure: In Vitro Enzymatic BACE2 FRET (Fluorescence Resonance Energy Transfer) Assay
Enzyme Assay Data in the Table 3
The assay buffer used in this screen is 0.05 M acetate, pH 4.2, 10% DMSO final, 100 uM genapol (which is a nonionic detergent, below its Critical Micelle Concentration). The Beta Secretase2 enzyme (human Bace2 protein with C-terminal V5 and 6-His tag; 0.2 nM) is pre-incubated for one hour with inhibitors, typically in about 1 uL of DMSO according to a serial dilution, are added thereto. This assay is effectively started by the addition of FRET substrate (50 nM) and the combination is incubated for one hour. Final assay concentration of about 0.64 nM. The FRET assay is terminated with by addition of Tris buffer, which raises the pH to neutrality, and the fluorescence is determined. The FRET substrate is a peptide with commercially available fluorophore and quencher, on opposite sides of the BACE cleavage site. Proteolytic cleavage of the FRET substrate releases quenching of fluorescence (excitation 488 nm and […]).

rat = details: higher compound dose given for three months; cited from earlier work
Aβ in lumbar CSF = details: cited from earlier work

| IC50 [1] [µM] | IC50 (BACE1) [µM] | IC50 (Cathepsin D (Cat D)) [µM] | IC50 (human Bace2 protein) [µM] | Structure (SMILES) | rat toxicology finding in the eye (rat) | Aβ reductions in lumbar CSF (Aβ in lumbar CSF; after oral dosing of 30 or 90 mg) | safety and tolerability (Aβ in lumbar CSF; healthy volunteers) |
| --- | --- | --- | --- | --- | --- | --- | --- |
| 0.007 | 0.014 | > 400 | 0.05 | CC#C[C@@H](C)Oc1cnc(C(=O)Nc2ccc(F)c([C@@]3(C)N=C(N)[C@@]4(C)CC[C@@H]3S4(=O)=O)c2)cn1 [Example 70, N-(3-((1S,2R,5R)-4-amino-2,5-dimethyl-8,8-dioxido-8-thia-3-azabicyclo[3.2.1]oct-3-en-2-yl)-4-fluorophenyl)-5-(((1R)-1-methyl-2-butyn-1-yl)oxy)-2-pyrazinecarboxamide] |  |  |  |
| 0.0001 | 0.003 | > 400 | 0.008 | CC#C[C@H](C)Oc1cnc(C(=O)Nc2ccc(F)c([C@@]3(C)N=C(N)[C@@]4(C)CC[C@@H]3S4(=O)=O)c2)cn1 [Example 71, N-(3-((1S,2R,5R)-4-amino-2,5-dimethyl-8,8-dioxido-8-thia-3-azabicyclo[3.2.1]oct-3-en-2-yl)-4-fluorophenyl)-5-(((1S)-1-methyl-2-butyn-1-yl)oxy)-2-pyrazinecarboxamide] |  |  |  |
| 0.0005 | 0.001 | 1100 | 0.082 | CC#CCOc1cnc(C(=O)Nc2ccc(F)c([C@@]3(C)N=C(N)[C@]4(C)CC[C@H]3S4(=O)=O)c2)cn1 [Example 83, N-(3-((1R,2R,5S)-4-amino-2,5-dimethyl-8,8-dioxido-8-thia-3-azabicyclo[3.2.1]oct-3-en-2-yl)-4-fluorophenyl)-5-(2-butyn-1-yloxy)-2-pyrazinecarboxamide] |  |  |  |
| 0.003 | 0.002 | > 118 | 0.002 | C[C@]1(c2cc(Nc3nccc4cc(C#N)cnc34)ccc2F)N=C(N)[C@@]2(C)CC[C@@H]1S2(=O)=O [Example 84, 8-((3-((1S,2R,5R)-4-amino-2,5-dimethyl-8,8-dioxido-8-thia-3-azabicyclo[3.2.1]oct-3-en-2-yl)-4-fluorophenyl)amino)-1,7-naphthyridine-3-carbonitrile] |  |  |  |
| 0.011 | 0.013 | 1450 | 0.024 | C[C@]12CC[C@H]([C@@](C)(c3cc(Nc4nccc5cc(C#N)cnc45)ccc3F)N=C1N)S2(=O)=O [Example 85, 8-((3-((1R,2R,5S)-4-amino-2,5-dimethyl-8,8-dioxido-8-thia-3-azabicyclo[3.2.1]oct-3-en-2-yl)-4-fluorophenyl)amino)-1,7-naphthyridine-3-carbonitrile] |  |  |  |
| 0.053 | 0.016 | 1550 | 0.006 | Cc1cc(Cl)cnc1C(=O)Nc1ccc(F)c([C@@]2(C)N=C(N)[C@]3(CF)CC[C@H]2S3(=O)=O)c1 [Example 89, N-(3-((1R,2R,5S)-4-amino-5-(fluoromethyl)-2-methyl-8,8-dioxido-8-thia-3-azabicyclo[3.2.1]oct-3-en-2-yl)-4-fluorophenyl)-5-chloro-3-methyl-2-pyridinecarboxamide] |  |  |  |
| 0.188 | 0.008 | 1310 | 0.058 | C[C@]1(c2cc(Nc3nccc4nc(OCC(F)(F)F)cnc34)ccc2F)N=C(N)[C@@]2(CF)CC[C@@H]1S2(=O)=O [Example 112, N-(3-((1S,2R,5R)-4-amino-5-(fluoromethyl)-2-methyl-8,8-dioxido-8-thia-3-azabicyclo[3.2.1]oct-3-en-2-yl)-4-fluorophenyl)-2-(2,2,2-trifluoroethoxy)pyrido[3,4-b]pyrazin-5-amine] |  |  |  |
| 0.044 | 0.061 | 348 | 7 | CC#CCOc1ccc(C(=O)Nc2ccc(F)c([C@@]3(C)N=C(N)[C@]4(C)CC[C@H]3S4(=O)=O)c2)c(F)c1 [Example 129, N-(3-((1R,2R,5S)-4-amino-2,5-dimethyl-8,8-dioxido-8-thia-3-azabicyclo[3.2.1]oct-3-en-2-yl)-4-fluorophenyl)-4-(2-butyn-1-yloxy)-2-fluorobenzamide] |  |  |  |
| 0.005 | 0.005 | 1280 | 0.067 | C[C@]1(c2cc(Nc3ncnc4cc(OCC5CC5)cnc34)ccc2F)N=C(N)[C@@]2(C)CC[C@@H]1S2(=O)=O [Example 139, N-(3-((1S,2R,5R)-4-amino-2,5-dimethyl-8,8-dioxido-8-thia-3-azabicyclo[3.2.1]oct-3-en-2-yl)-4-fluorophenyl)-7-(cyclopropylmethoxy)pyrido[3,2-d]pyrimidin-4-amine] |  |  |  |
| 0.002 | 0.003 | 1980 | 0.065 | COCCOc1cnc2c(Nc3ccc(F)c([C@@]4(C)N=C(N)[C@@]5(C)CC[C@@H]4S5(=O)=O)c3)nccc2n1 [Example 145, N-(3-((1S,2R,5R)-4-amino-2,5-dimethyl-8,8-dioxido-8-thia-3-azabicyclo[3.2.1]oct-3-en-2-yl)-4-fluorophenyl)-2-(2-methoxyethoxy)pyrido[3,4-b]pyrazin-5-amine] |  |  |  |
|  |  |  |  | C[C@@]1(c2cc(-c3cncnc3)c(F)cc2F)CCSC(N)=N1 [LY2811376, (S)-4-(2,4-difluoro-5-pyrimidin-5-yl-phenyl)-4-methyl-5,6-dihydro-4H-[1,3]thiazin-2-ylamine] | damaged the pigment epithelium of the rat's eye | Prominent and long-lasting Aβ reductions | safe and well tolerated |
